From patent US20230329989A1, “A PERSONAL CARE COMPOSITION COMPRISING AMINO ACIDS” (priority 2020, published 2023)

Legend:
S. aureus = test: Growth kinetics of S. aureus with individual amino acids; type: cell-based; conditions: 0.1 wt % individual amino acid; for inhibition of S. aureus (in words): among the seven selected; for Absorbance at 600 nm: S. aureus, growth till 20 hours
Method: In order to identify a set of amino acids which are major contributors to the higher growth rate of S. aureus in Mix 7, growth kinetics experiments were carried out with all seven individual amino acids. […] The experiment was carried out for growth till 20 hours. They were carried out at 0.1 wt % concentration of the individual amino acid.

S. epidermidis = test: Growth of S. epidermidis in the presence of a single amino acid as supplement; type: cell-based; conditions: 0.1% individual amino acid in 10% TSB + 1% glucose, 37° C., 24 hrs, absorbance at 600 nm normalized to control without amino acid; for activity at 0.1 %: Staphylococcus epidermidis
Method: The growth of the above commensal bacteria due to the presence of each of the twenty different amino acids separately was studied. All 20 L-amino acids were procured from Hi media. The stocks were prepared in distilled water and filter sterilized by passing it through 0.22 μm filter. A 100 mM sodium phosphate buffer pH 7.4 was prepared and filter sterilized. Reaction was set up in a 96 well flat bottom transparent plate. […] The final concentration of individual amino acid was 0.1%. Each reaction was set up in triplicates. The plate was incubated at 37° C. under stationary conditions for 24 hrs. After 24 hrs, the absorbance of the plate was measured at 600 nm using TECAN plate reader. The absorbance values were then normalized to control (S. epidermidis grown in 10% TSB+1% glucose).

| SMILES | inhibition of S. aureus (in words) (S. aureus) | Absorbance at 600 nm (S. aureus) | activity at 0.1 % (S. epidermidis) [%] | % growth (S. epidermidis) [%] |
| --- | --- | --- | --- | --- |
| N[C@@H](Cc1ccc(O)cc1)C(=O)O [Example 1Q, Tyrosine] | maximum inhibition | 0.478 | 120 |  |
| NC(CS)C(=O)O (stereo not drawn) [Example 1E, Cysteine] | maximum inhibition | 0.476 | 121 |  |
| NC(CC(=O)O)C(=O)O (stereo not drawn) [Example 1D, Aspartic acid] | maximum inhibition | 0.540 | 121 |  |
| CC(N)C(=O)O (stereo not drawn) [Example 1A, Alanine] | maximum inhibition | 0.447 | 139 |  |
| NC(=O)CC[C@H](N)C(=O)O [Example 1H, Glutamine] |  |  | 109 |  |
| CC(C)[C@H](N)C(=O)O [Example 1T, Valine] |  |  | 96 |  |
| N[C@@H](Cc1c[nH]cn1)C(=O)O [Example 11, Histidine] |  |  | 96 |  |
| NC(=O)C[C@H](N)C(=O)O [Example 1C, Asparagine] |  |  | 113 |  |
| NCC(=O)O [Example 1F, Glycine] |  | 0.863 |  | 135 |
| CC[C@H](C)[C@H](N)C(=O)O [Example 1J, Isoleucine] |  |  | 99 |  |
| N[C@@H](CO)C(=O)O [Example 1P, Serine] | maximum inhibition | 0.504 | 134 |  |
| C[C@@H](O)[C@H](N)C(=O)O [Example 1R, Threonine] |  | 0.697 | 126 |  |
| CC(C)C[C@H](N)C(=O)O [Example 1K, Leucine] |  |  | 96 |  |
| O=C(O)[C@@H]1CCCN1 [Example 1O, Proline] |  |  | 93 |  |
| CSCC[C@H](N)C(=O)O [Example 1M, Methionine] |  |  | 87 |  |
